{
  "source": "patent US10874631B2",
  "about": "“Altertoxin II as a selective inhibitor of Ewing family of tumor cells” (priority 2016, dated 2020)",
  "test_system": "A673 Ewing sarcoma cells",
  "assay": "DNA damage response immunoblot (Chk1, Chk2)",
  "format": "cell-based",
  "settings": "10-300 nM, within 6 h",
  "method": "FIG. 9A-9B. Altertoxin II causes phosphorylation of CHK1 and 2 and p53 in Ewing sarcoma cells. Ewing sarcoma cells, A673, RD-ES, SK-ES-1, or rhabdomyosarcoma A204 cells were treated with altertoxin II at the concentrations indicated for 6 h (A) or 24 h (B) and whole-cell lysates prepared and proteins separated by SDS-PAGE. These samples were analyzed by immunoblotting for total and phosphorylated Chk1 and 2 and p53 (A).\nDownstream activation of DNA damage response proteins by altertoxin II was subsequently evaluated.",
  "data": [
    {"smiles": "O=C1CC[C@]2(O)c3c(ccc(O)c31)-c1ccc(O)c3c1[C@H]2[C@H]1O[C@H]1C3=O", "note": "[altertoxin II]", "values": [
      {"measurement": "phosphorylation of Chk1 and Chk2", "result": "caused phosphorylation of checkpoint kinase 1 and 2"}
    ]}
  ]
}
